Experimental data: ChEMBL document CHEMBL3244175, “Experimental antiulcer drugs. 2. 2-Substituted 2,4,5,6-tetrahydro-1,3,4,6,6-pentamethylcyclopenta[c]pyrrole-4-carboxamides” (1977)

Tested on: Rattus norvegicus
Assay: Antisecretory activity in 5-hrs pyloric ligated rat assessed as pH of gastric contents at 100 mg/kg, po administered 2 hrs prior to pyloric ligation measured after 1 hr (reference value: 1.1 no-unit)
Type: functional, Stomach

SMILES: Cc1c2c(c(C)n1C)C(C)(C(N)=O)CC2(C)C (stereo not given)
- pH: 4.2

SMILES: Cc1c2c(c(C)n1C1CCCC1)C(C)(C(N)=O)CC2(C)C (stereo not given)
- pH: 1.3

SMILES: Cc1[nH]c(C)c2c1C(C)(C)CC2(C)C(N)=O (stereo not given)
- pH: 1.4

SMILES: CN/C(=N\CCSCc1nc[nH]c1C)NC#N [CIMETIDINE]
- pH: 2.1

SMILES: Cc1c2c(c(C)n1-c1cccc(Cl)c1)C(C)(C(N)=O)CC2(C)C (stereo not given)
- pH: 1.1

SMILES: CCCn1c(C)c2c(c1C)C(C)(C(N)=O)CC2(C)C (stereo not given)
- pH: 5.3

SMILES: Cc1ccccc1-n1c(C)c2c(c1C)C(C)(C(N)=O)CC2(C)C (stereo not given)
- pH: 1

SMILES: Cc1c2c(c(C)n1C1CC1)C(C)(C(N)=O)CC2(C)C (stereo not given)
- pH: 3.7

SMILES: Cc1c2c(c(C)n1-c1ccc(F)cc1)C(C)(C(N)=O)CC2(C)C (stereo not given)
- pH: 1.4

SMILES: Cc1c2c(c(C)n1C(C)C)C(C)(C(N)=O)CC2(C)C (stereo not given)
- pH: 1.8
